Experiment: Biological Activity of Selected Compounds of the Invention: Specific Examples of compounds of the invention, with estimated EC50 values determined using an MTT assay for 4-day viability of Raji (Burkitt's) lymphoma cells, a cell line known to highly express MCT1 and to be sensitive to small molecule MCT inhibitors,4 are shown in Table 3. Assay protocols follow those described in the literature.4 Other assays that are not described here but that are standard in the field, such as an assay for competitive inhibition of transport of radiolabeled lactic acid, an MCT substrate, may also be useful in establishing mechanism of action of these compounds.
Conditions: 96 h

CC(C)Cn1c(=O)n(C)c(=O)c2nc(CCCCCO)c(COc3cccc4ncccc34)nc21
EC50: < 50 nM

Source: ChEMBL document CHEMBL5728172, “Pteridine dione monocarboxylate transporter inhibitors” (2020)
